Experiment [1] relates to Ctenocephalides Felis (Cat Flea). The experiment is described as follows: Activity in vitro against Ctenocephalides felis (cat flea), Assay A. The note with it: Ctenocephalides felis; at 100 ppm; adult fleas fed on treated blood for 24 h; dead fleas counted; read-out: efficacy (EC80). On the procedure: Activity In Vitro Against Ctenocephalides Felis (Cat Flea)—Assay A
A mixed adult population of fleas is placed in a suitably formatted 96-well plate allowing fleas to access and feed on treated blood via an artificial feeding system. Fleas are fed on treated blood for 24 h, after which the compound effect is recorded. Insecticidal activity is determined on the basis of the number of dead fleas recovered from the feeding system.

Experiment [2] has as its system Rhipicephalus sanguineus (Dog Tick). Description: Activity in vitro against Rhipicephalus sanguineus (dog tick), Assay A, contact test. The note with it: Rhipicephalus sanguineus, 168 h, at 100 ppm, adult ticks, 28° C. and 80% relative humidity for 7 days, read-out: efficacy (EC80). On the procedure:
Activity In Vitro Against Rhipicephalus sanguineus (Dog Tick)—Assay A
A contact test is performed by pre-coating microplate with serial dilution of compound allowing evaluating anti-parasitic activity by contact against ticks. A mixed adult tick population is then distributed to each well of the plate and incubated at 28° C. and 80% relative humidity for 7 days, during which the effect of the test compound is monitored. Acaricidal activity is confirmed if and when adult ticks are dead.

The subject of experiment [3] is Engorged Female Rhipicephalus microplus (Cattle Tick). The experiment is described as follows: Activity in vitro against engorged female Rhipicephalus microplus (cattle tick), contact test. As to conditions: 672 h, organophosphorous-resistant Ultimo strain, evaluation 28 days later on mortality, oviposition and hatched larvae, read-out: efficacy (EC80). As to the method: Activity In Vitro Against Engorged Female Rhipicephalus microplus (Cattle Tick)
A contact test is performed by pre-coating 6-well microplates with serial dilution of the compound to be evaluated for anti-parasitic activity. 10 engorged female ticks of the organophosphorous-resistant Ultimo strain are distributed to each well in triplicates. Plates are then incubated at 28° C. and 80% relative humidity. Evaluation takes place 28 days later based on mortality, oviposition and hatched larvae. […] Activity In Vivo Against Rhipicephalus sanguineus Nymphs on Mongolian Gerbils (Meriones unguiculatus) (Spray Application)

For another experiment, the system named is Lice (Polyplax serrata). The experiment is described as follows: Activity in vivo against lice (Polyplax serrata) in mice (topical). As to conditions: pour-on application, live lice on day +4 and +14, Henderson & Tilton formula, read-out: efficacy (EC90). On the procedure:
Activity In Vivo Against Lice (Polyplax serrata) in Mice (Topical) Mice naturally infected with P. serrata are treated with the formulated test compound on day 0 by pour-on application. On day +4 and +14, efficacy is evaluated by counting the number of live lice under a binocular. Efficacy at the two time points is expressed as a comparison of lice numbers counted on the same mouse before treatment, using the Henderson & Tilton formula, taking also into account lice numbers found on mice treated with the empty formulation (placebo group): [formula] n=number of lice, T=treated group, Co=control/placebo group.

The subject of experiment [4] is Lucilla Cuprina (Australian sheep blowfly). The experiment is described as follows: Activity in vitro against Lucilla cuprina (Australian sheep blowfly), Assay A. As to conditions: Lucilia cuprina, 96 h; at 32 ppm; eggs on agar-based medium, 4 days at 28° C. and 60% relative humidity; read-out: efficacy (EC80). On the procedure:
Activity in vitro against Lucilla Cuprina (Australian sheep blowfly)—Assay A
Freshly laid blowfly eggs are used to seed a suitably formatted microplate containing the test substances to be evaluated for antiparasitic activity. Each compound is tested by serial dilution in order to determine its minimum efficacy dose. The test compounds are embedded in an agar-based nutritive medium allowing the full development of the eggs into 3rd instar larvae. The incubation lasts for 4 days at 28° C. and 60% relative humidity. Egg-hatching and ensuing larval development are also recorded to identify a possible growth-regulating activity.

For experiment [5], the system named is Ctenocephalides Felis (Cat Flea). The experiment is described as follows: Activity in vitro against Ctenocephalides felis (cat flea), Assay B. As to conditions: Ctenocephalides felis; at 10 ppm in bovine blood; % mortality at 48 hours post infestation; read-out: efficacy (EC50). On the procedure:
Activity In Vitro Against Ctenocephalides Felis (Cat Flea)—Assay B
Test compounds are added to organic bovine blood contained in an artificial feeding container. Compounds with known insecticidal activity are included to serve as positive controls. Newly emerged unfed adult fleas from a laboratory colony are aspirated into each vial. The test cages are maintained using the artificial feeding apparatus to allow ingestion of compound. Fleas are evaluated for % mortality at 48 hours post infestation. Fleas showing normal movement and/or jumping ability are considered viable and those showing no movement are scored as dead.

The subject of experiment [6] is Rhipicephalus sanguineus Nymphs. Description: Activity in vivo against Rhipicephalus sanguineus nymphs on Mongolian gerbils. As to conditions: topical, 0 h, pour on application day 0, tick number reduction vs placebo, Abbott's formula, read-out: efficacy (EC90). As to the method:
On day 0, gerbils are treated with the test compound at a given dose by pour on application. On day +1 (+2), the animals are infested with nymphs of R. sanguineus. Ticks are left on the animals until full repletion. Seven days after infestation nymphs dropped off fully engorged are collected and counted. They are kept until molting to also evaluate growth regulating activity of the test compound. Efficacy in killing (and growth regulating) is expressed as a tick number (and molted tick number) reduction in comparison with a placebo treated group, using the Abbott's formula:
n=number of live ticks. T=treated group. Co=control/placebo group.

Each structure is given as a SMILES string. A value given as a limit tells only on which side of the number the result lay.

As for `C#CCN(C(=O)c1cc(Cl)cc(OC(F)(F)F)c1)C(C)c1ncnn1-c1ncccn1` (stereo not drawn) [Example 36, 3-Chloro-N-prop-2-ynyl-N-[1-(2-pyrimidin-2-yl-1,2,4-triazol-3-yl)ethyl]-5-(trifluoromethoxy)-benzamide], the pest or weed control at 100 ppm in experiment [1] and in experiment [2] was above 80% each time. In addition, the pest or weed control at 200 ppm in experiment [3] is above 80%. The inhibition in vivo at 32 mg/kg with Lice (Polyplax serrata) was above 90%. Besides, the pest or weed control at 32 ppm in experiment [4] is above 80%.
On to `CC(c1ncnn1-c1ncccn1)N(C)C(=O)c1cccc(C(N)=S)c1` (stereo not drawn) [Example 71, 3-Carbamothioyl-N-methyl-N-[1-(2-pyrimidin-2-yl-1,2,4-triazol-3-yl)ethyl]benzamide], for which, in experiment [5], the pest or weed control at 10 ppm was above 50%.
Regarding `CC(c1ncnn1-c1ncccn1)N(CC1CC1)C(=O)c1cccc(C#N)c1` (stereo not drawn) [Example 38, 3-Cyano-N-(cyclopropylmethyl)-N-[1-(2-pyrimidin-2-yl-1,2,4-triazol-3-yl)ethyl]benzamide], the pest or weed control at 100 ppm in experiment [1] and in experiment [2] was above 80% throughout. Further, in experiment [3], the pest or weed control at 200 ppm was above 80%. Besides, the inhibition in vivo at 32 mg/kg in the experiment with Lice (Polyplax serrata) is above 90%. Besides, in experiment [4], the pest or weed control at 32 ppm was above 80%.
As for `C#CCN(C(=O)c1cc(C(F)(F)F)cc(C(F)(F)F)c1)C(C)c1ncnn1-c1ccccn1` (stereo not drawn) [Example 15], the pest or weed control at 100 ppm in experiment [1] and in experiment [2] was above 80% in each case. Further, the pest or weed control at 200 ppm in experiment [3] was above 80%. Further, the inhibition in vivo at 32 mg/kg with Lice (Polyplax serrata) is above 90%. Further, the pest or weed control at 32 ppm in experiment [4] was above 80%.
For the compound `CC(c1ncnn1-c1ccccn1)N(CC#N)C(=O)c1cc(C(F)(F)F)cc(C(F)(F)F)c1` (stereo not drawn) [Example 14, N-(Cyanomethyl)-N-[1-[2-(2-pyridyl)-1,2,4-triazol-3-yl]ethyl]-3,5-bis(trifluoromethyl)benzamide], the pest or weed control at 100 ppm in experiment [1] and in experiment [2] was above 80% each time. Also, the pest or weed control at 200 ppm in experiment [3] is above 80%. For the same compound, the pest or weed control at 32 ppm in experiment [4] is above 80%. Besides, the inhibition in vivo at 32 mg/kg in experiment [6] is above 90%.
Turning to `C[C@@H](c1ncnn1-c1ccccn1)N(CC1CC1)C(=O)c1cc(C(F)(F)F)cc(C(F)(F)F)c1` [Example 44, N-(Cyclopropylmethyl)-N-[(1S)-1-[2-(2-pyridyl)-1,2,4-triazol-3-yl]ethyl]-3,5-bis(trifluoromethyl)benzamide], the pest or weed control at 100 ppm in experiment [1] is above 80%. In experiment [3], the pest or weed control at 200 ppm is above 80%. Moreover, the pest or weed control at 32 ppm in experiment [4] is above 80%. For the same compound, in experiment [6], the inhibition in vivo at 32 mg/kg was above 90%.
As to `CCCN(C(=O)c1cc(Cl)cc(C(F)(F)F)c1)C(C)c1ncnn1-c1ccccn1` (stereo not drawn) [Example 8, 3-Chloro-N-propyl-N-[1-[2-(2-pyridyl)-1,2,4-triazol-3-yl]ethyl]-5-(trifluoromethyl)benzamide], the pest or weed control at 100 ppm in experiment [1] was above 80%. The pest or weed control at 200 ppm in experiment [3] was above 80%. In experiment [4], the pest or weed control at 32 ppm was above 80%. In experiment [6], the inhibition in vivo at 32 mg/kg is above 90%.
Take `CC(NC(=O)c1cccc(C#N)c1)c1ncnn1-c1ncccn1` (stereo not drawn) [Example 52, 3-Cyano-N-[1-(2-pyrimidin-2-yl-1,2,4-triazol-3-yl)ethyl]benzamide]: in experiment [5], the pest or weed control at 10 ppm is above 50%.
Take `CC(c1ncnn1-c1ncccn1)N(CCF)C(=O)c1cc(Cl)cc(C(F)(F)F)c1` (stereo not drawn) [Example 23, 3-Chloro-N-(2-fluoroethyl)-N-[1-(2-pyrimidin-2-yl-1,2,4-triazol-3-yl)ethyl]-5-(trifluoromethyl)benzamide]: in experiment [3], the pest or weed control at 200 ppm was above 80%. Also, the pest or weed control at 32 ppm in experiment [4] was above 80%. For the same compound, in experiment [6], the inhibition in vivo at 32 mg/kg was above 90%.
For `CC(c1ncnn1-c1ncccn1)N(CCC(F)(F)F)C(=O)c1cncc(C(F)(F)F)c1` (stereo not drawn) [Example 29, N-[1-(2-Pyrimidin-2-yl-1,2,4-triazol-3-yl)ethyl]-5-(trifluoromethyl)-N-(3,3,3-trifluoropropyl)pyridine-3-carboxamide], the pest or weed control at 100 ppm in experiment [1] and in experiment [2] was above 80% throughout. The pest or weed control at 32 ppm in experiment [4] was above 80%. The inhibition in vivo at 32 mg/kg in experiment [6] was above 90%.
For the compound `CC(c1ncnn1-c1ncccn1)N(CCCF)C(=O)c1cncc(C(F)(F)F)c1` (stereo not drawn) [Example 31, N-(3-Fluoropropyl)-N-[1-(2-pyrimidin-2-yl-1,2,4-triazol-3-yl)ethyl]-5-(trifluoromethyl)pyridine-3-carboxamide], the pest or weed control at 100 ppm in experiment [1] and in experiment [2] was above 80% in each case. Further, the pest or weed control at 32 ppm in experiment [4] was above 80%. Also, in experiment [6], the inhibition in vivo at 32 mg/kg was above 90%.
Take `CC(c1ncnn1-c1ncccn1)N(CCC(F)(F)F)C(=O)c1cc(Cl)cc(C(F)(F)F)c1` (stereo not drawn) [Example 26, 3-Chloro-N-[1-(2-pyrimidin-2-yl-1,2,4-triazol-3-yl)ethyl]-5-(trifluoromethyl)-N-(3,3,3-trifluoropropyl)benzamide]: the pest or weed control at 100 ppm in experiment [1] and in experiment [2] was above 80% in each case. Moreover, the pest or weed control at 32 ppm in experiment [4] was above 80%. The inhibition in vivo at 32 mg/kg in experiment [6] was above 90%.
Turning to `CC(c1ncnn1-c1ncccn1)N(CCCF)C(=O)c1cc(Cl)cc(C(F)(F)F)c1` (stereo not drawn) [Example 24, 3-Chloro-N-(3-fluoropropyl)-N-[1-(2-pyrimidin-2-yl-1,2,4-triazol-3-yl)ethyl]-5-(trifluoromethyl)benzamide], the pest or weed control at 100 ppm in experiment [1] and in experiment [2] was above 80% each time. For the same compound, the pest or weed control at 200 ppm in experiment [3] is above 80%. Also, the inhibition in vivo at 32 mg/kg in the experiment with Lice (Polyplax serrata) is above 90%. Moreover, the pest or weed control at 32 ppm in experiment [4] is above 80%.
On to `CC(c1ncnn1-c1ccccn1)N(CC1CC1)C(=O)c1cncc(C(F)(F)F)c1` (stereo not drawn) [Example 9, N-(Cyclopropylmethyl)-N-[1-[2-(2-pyridyl)-1,2,4-triazol-3-yl]ethyl]-5-(trifluoromethyl)pyridine-3-carboxamide], for which the pest or weed control at 100 ppm in experiment [1] and in experiment [2] was above 80% throughout. In addition, the pest or weed control at 200 ppm in experiment [3] is above 80%. For the same compound, in experiment [4], the pest or weed control at 32 ppm was above 80%. Besides, the inhibition in vivo at 32 mg/kg in experiment [6] was above 90%.
`C#CCN(C(=O)c1cc(Cl)cc(C(F)(F)F)c1)C(C)c1ncnn1-c1ccccn1` (stereo not drawn) [Example 7, 3-Chloro-N-prop-2-ynyl-N-[1-[2-(2-pyridyl)-1,2,4-triazol-3-yl]ethyl]-5-(trifluoromethyl)benzamide]: the pest or weed control at 100 ppm in experiment [1] is above 80%. Also, the pest or weed control at 200 ppm in experiment [3] was above 80%. In addition, the inhibition in vivo at 32 mg/kg in the experiment with Lice (Polyplax serrata) was above 90%. For the same compound, the pest or weed control at 32 ppm in experiment [4] is above 80%.
With `C[C@@H](c1ncnn1-c1ncccn1)N(CC1CC1)C(=O)c1cncc(C(F)(F)F)c1` [Example 45, N-(Cyclopropylmethyl)-N-[(1S)-1-(2-pyrimidin-2-yl-1,2,4-triazol-3-yl)ethyl]-5-(trifluoromethyl)pyridine-3-carboxamide], the pest or weed control at 100 ppm in experiment [1] is above 80%. Also, in experiment [3], the pest or weed control at 200 ppm is above 80%. In addition, the pest or weed control at 32 ppm in experiment [4] is above 80%. In experiment [6], the inhibition in vivo at 32 mg/kg was above 90%.

For the origin of these results see patent publication US10287276B2, “Heteroaryl-1,2,4-triazole and heteroaryl-tetrazole compounds for controlling ectoparasites” (Elanco Tiergesundheit AG, priority 2016, dated 2019).
